Test results: US12528773B2, “Non-lysosomal glucosylceramidase inhibitors and uses thereof” (ALECTOS THERAPEUTICS INC., priority 2020, dated 2026)
pIC50: −log10 of the molar value.

Legend:
Type in all cases: biochemical
[1] = tested on: rat intestinal alpha-glucosidases; experiment: Inhibition of rat intestinal alpha-glucosidases (rat intestinal lysate, glucose detection); settings: compound concentration 25 μM, sucrose as substrate
Experimental: Assay for Determination of Inhibition of Rat Intestinal Alpha-Glucosidases
Various concentrations of test compounds were prepared in DMSO and then diluted into buffer consisting of 100 mM citric acid, 200 mM disodium phosphate, pH 6.0. Rat intestinal acetone powder (Sigma) was dissolved to 12.5 mg/mL in assay buffer and sonicated in an ice bath, centrifuged, and the supernatant was collected, aliquoted and stored at −20° C. until use. On the day of the assay, the rat intestinal lysate was diluted to 6.25 mg/mL (sucrose reactions) and 2.1 mg/ml (maltose reactions) in assay buffer. The final reaction solutions for sucrose contained 2.1 mg/mL rat intestinal lysate, 40 mM sucrose, 50 or 25 μM of test compound, and 3.3% DMSO. The final reaction solution for maltose contained 0.69 mg/mL rat intestinal lysate, 10 mM maltose, 50 or 25 μM of test compound, and 3.3% DMSO. The reaction was initiated by the addition of substrate (sucrose or maltose) and allowed to proceed at 37° C. for 20 min to assess rat intestinal alpha-glycosidase activities. The reaction was stopped by addition of 20 μL of 2 M Tris-HCl, pH 7.0. The glucose produced during the reaction was detected using a commercial Amplex Red glucose detection kit from Thermo Fisher. For a full plate, the Amplex Red detection mixture was prepared by mixing 35 μL glucose oxidase, 35 μL horseradish peroxidase and 35 μL Amplex Red into 3395 μL 1× Amplex Red detection buffer. A total of 30 μL of detection mixture was added to each well. Fluorescence was measured in kinetic mode on a Biotek Synergy H4 plate reader at a wavelength of 573 nm for excitation and 610 nm for emission for 15 min and quantified from the data at 10 min. Incubations without added rat intestinal lysate were used to correct for the background amount of glucose present in the samples. Incubations without added test compound were used to define maximal enzyme activity. Percent inhibition of rat intestinal alpha-glucosidases was determined by dividing the amount of glucose detected in the presence of test compound by the amount of glucose detected in the maximal enzyme activity wells. All conditions were analyzed in triplicate. […] The final reaction solutions were the same as described above for the Amplex Red Detection kit. After a 20 min reaction time at 37° C., 100 μL of hexokinase glucose reagent was added to all test wells except for the no enzyme added control wells and no test compound added wells. The plate was incubated for a further 15 min at room temperature and the absorbance was read at 340 nm on a Biotek Synergy H4 plate reader. The percent inhibition of rat intestinal alpha-glucosidases was determined in a similar manner as described above.

[2] = molecular target: T1, GBA2 (Homo sapiens (Human), UniProt Q9HCG7); experiment: Binding specificity for GBA2 over other molecules, Ki or IC50 ratio
Source text: In some embodiments, one or more of the compounds according to the invention may specifically bind a GBA2. In alternative embodiments, one or more of the compounds according to the invention may specifically bind the active site of a GBA2. […] In alternative embodiments, one or more of the compounds according to the invention may specifically bind the human non-lysosomal glucosylceramidase (GBA2) over the human lysosomal glucosylceramidase (GCase) and/or the human cytosolic glucosylceramidase (GBA3). In alternative embodiments, one or more of the compounds according to the invention may specifically bind the human non-lysosomal glucosylceramidase (GBA2) over the human glucosylceramide synthase (GCS). In alternative embodiments, one or more of the compounds according to the invention may specifically bind the human non-lysosomal glucosylceramidase (GBA2) over an intestinal alpha-glucosidase, where the intestinal alpha-glucosidase may be a sucrase-isomaltase or a maltase-glucoamylase.

[3] = molecular target: T1, GBA2; experiment: Inhibition of GBA2 in cell lysate (4-methylumbelliferone glucopyranoside substrate); settings: HEK293T-overexpressing GBA2 cellular homogenate, pH 5.5; read-out: GBA2 IC50;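 further: homogenate of stably transfected HEK293T cells pre-treated with a GCase inhibitor, test compound preincubated 5 min at 37 °C, substrate reaction 20 min at 37 °C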

T1 sequence (Q9HCG7 whole entry): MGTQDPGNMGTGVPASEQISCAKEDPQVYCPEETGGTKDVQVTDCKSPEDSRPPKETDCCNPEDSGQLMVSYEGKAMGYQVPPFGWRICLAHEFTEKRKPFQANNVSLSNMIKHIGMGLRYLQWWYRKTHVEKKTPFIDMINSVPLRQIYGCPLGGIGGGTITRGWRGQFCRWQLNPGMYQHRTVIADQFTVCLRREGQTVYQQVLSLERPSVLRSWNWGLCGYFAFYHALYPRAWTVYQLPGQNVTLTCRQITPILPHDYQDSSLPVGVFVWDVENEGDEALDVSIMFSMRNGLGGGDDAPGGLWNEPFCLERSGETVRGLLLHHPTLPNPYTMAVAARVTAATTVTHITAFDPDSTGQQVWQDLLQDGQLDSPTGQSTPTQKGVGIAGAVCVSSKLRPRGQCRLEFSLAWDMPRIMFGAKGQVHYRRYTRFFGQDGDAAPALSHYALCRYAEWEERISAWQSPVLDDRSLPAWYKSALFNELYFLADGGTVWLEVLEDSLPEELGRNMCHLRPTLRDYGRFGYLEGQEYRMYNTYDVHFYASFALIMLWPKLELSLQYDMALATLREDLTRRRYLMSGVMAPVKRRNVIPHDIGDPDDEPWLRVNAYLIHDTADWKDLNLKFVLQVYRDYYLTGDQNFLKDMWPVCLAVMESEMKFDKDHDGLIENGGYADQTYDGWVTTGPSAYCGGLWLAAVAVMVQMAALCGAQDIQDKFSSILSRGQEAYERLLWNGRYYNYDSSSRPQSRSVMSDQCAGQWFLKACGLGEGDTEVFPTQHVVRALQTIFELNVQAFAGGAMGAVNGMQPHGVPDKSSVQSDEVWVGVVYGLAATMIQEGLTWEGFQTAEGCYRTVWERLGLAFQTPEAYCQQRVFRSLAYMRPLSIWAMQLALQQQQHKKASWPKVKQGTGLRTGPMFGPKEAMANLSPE

| SMILES | rat α-glu. (% inhib.) [1] [%] | binding specificity, IC50(other molecule)/IC50(GBA2) or Ki ratio [2] | pIC50 [3] |
| --- | --- | --- | --- |
| O[C@H]1[C@H](O)CN(C[C@H]2CC[C@H](C(F)(F)F)CC2)C[C@@H]1O [Example 1, (3S,4R,5R)-1-(((1r,4R)-4-(trifluoromethyl)cyclohexyl)methyl)piperidine-3,4,5-triol] | 0 | enhanced binding specificity | > 7.00 |
| O[C@H]1[C@H](O)CN(C[C@H]2CC[C@@H](C(F)(F)F)CC2)C[C@@H]1O [Example 2, (3S,4R,5R)-1-(((1s,4S)-4-(trifluoromethyl)cyclohexyl)methyl)piperidine-3,4,5-triol] | 4 | enhanced binding specificity | > 7.00 |
| CC(C)(F)[C@H]1CC[C@@H](CN2C[C@@H](O)[C@H](O)[C@@H](O)C2)CC1 [Example 3, (3S,4R,5R)-1-(((1s,4S)-4-(2-fluoropropan-2-yl)cyclohexyl)methyl)piperidine-3,4,5-triol] | 1 | enhanced binding specificity | > 7.00 |
| O[C@H]1[C@H](O)CN(CCc2c(F)ccc(Cl)c2F)C[C@@H]1O [Example 7, (3S,4r,5R)-1-(3-chloro-2,6-difluorophenethyl)piperidine-3,4,5-triol] | 0 | enhanced binding specificity | > 7.00 |
| O[C@H]1[C@H](O)CN(CCc2c(F)cc(OCC3CC3)cc2F)C[C@@H]1O [Example 9, (3S,4r,5R)-1-(4-(cyclopropylmethoxy)-2,6-difluorophenethyl)piperidine-3,4,5-triol] | 0 | enhanced binding specificity | > 7.00 |
| O[C@H]1[C@H](O)CN(CCc2c(F)cc(N3CCCC3)cc2F)C[C@@H]1O [Example 10, (3S,4r,5R)-1-(2,6-difluoro-4-(pyrrolidin-1-yl)phenethyl)piperidine-3,4,5-triol] | 7 | enhanced binding specificity | > 7.00 |
| O[C@H]1[C@H](O)CN(C[C@H]2CC[C@H](C(F)F)CC2)C[C@@H]1O [Example 185, (3S,4R,5R)-1-(((1r,4R)-4-(difluoromethyl)cyclohexyl)methyl)piperidine-3,4,5-triol] | 3 | – | 6.00 to 7.00 |
| O[C@H]1[C@H](O)CN(C[C@H]2CC[C@@H](C(F)F)CC2)C[C@@H]1O [Example 186, (3S,4R,5R)-1-(((1s,4S)-4-(difluoromethyl)cyclohexyl)methyl)piperidine-3,4,5-triol] | 8 | – | 6.00 to 7.00 |
| CC(F)(F)[C@H]1CC[C@@H](CN2C[C@@H](O)[C@H](O)[C@@H](O)C2)CC1 [Example 187, (3S,4R,5R)-1-(((1s,4S)-4-(1,1-difluoroethyl)cyclohexyl)methyl)piperidine-3,4,5-triol] | 0 | – | > 7.00 |
| CC(F)(F)[C@H]1CC[C@H](CN2C[C@@H](O)[C@H](O)[C@@H](O)C2)CC1 [Example 188, (3S,4R,5R)-1-(((1r,4R)-4-(1,1-difluoroethyl)cyclohexyl)methyl)piperidine-3,4,5-triol] | 10 | – | > 7.00 |
| O[C@H]1[C@H](O)CN(C[C@H]2CC[C@H](OC(F)(F)F)CC2)C[C@@H]1O [Example 189, (3S,4R,5R)-1-(((1r,4R)-4-(trifluoromethoxy)cyclohexyl)methyl)piperidine-3,4,5-triol] | 3 | – | > 7.00 |
| O[C@H]1[C@H](O)CN(CC2Cc3c(F)ccc(F)c3C2)C[C@@H]1O [Example 190, (3S,4r,5R)-1-((4,7-difluoro-2,3-dihydro-1H-inden-2-yl)methyl)piperidine-3,4,5-triol] | 4 | – | > 7.00 |
| O=C(C1CCCCC1)N1CCC(F)(CN2C[C@@H](O)[C@H](O)[C@@H](O)C2)CC1 [Example 191, Cyclohexyl(4-fluoro-4-(((3S,4r,5R)-3,4,5-trihydroxypiperidin-1-yl)methyl)piperidin-1-yl)methanone] | 1 | – | 6.00 to 7.00 |
| O[C@H]1[C@H](O)CN(CC2(F)CCN(c3ccc(F)cc3)CC2)C[C@@H]1O [Example 192, (3S,4r,5R)-1-((4-fluoro-1-(4-fluorophenyl)piperidin-4-yl)methyl)piperidine-3,4,5-triol] | 2 | – | 6.00 to 7.00 |
| O[C@H]1[C@H](O)CN(CC2(F)CCN(c3ccccc3C(F)(F)F)CC2)C[C@@H]1O [Example 193, (3S,4r,5R)-1-((4-fluoro-1-(2-(trifluoromethyl)phenyl)piperidin-4-yl)methyl)piperidine-3,4,5-triol] | 2 | – | > 7.00 |
| O[C@H]1[C@H](O)CN(CC2(F)CCN(c3ncccc3C(F)(F)F)CC2)C[C@@H]1O [Example 194, (3S,4r,5R)-1-((4-fluoro-1-(3-(trifluoromethyl)pyridin-2-yl)piperidin-4-yl)methyl)piperidine-3,4,5-triol] | 4 | – | > 7.00 |
| O[C@H]1[C@H](O)CN(CC2(F)CCN(c3cccc(C(F)(F)F)n3)CC2)C[C@@H]1O [Example 195, (3S,4r,5R)-1-((4-fluoro-1-(6-(trifluoromethyl)pyridin-2-yl)piperidin-4-yl)methyl)piperidine-3,4,5-triol] | 5 | – | 6.00 to 7.00 |
| O[C@H]1[C@H](O)CN(CC2(F)CCN(c3nc4ccccc4s3)CC2)C[C@@H]1O [Example 196, (3S,4r,5R)-1-((1-(benzo[d]thiazol-2-yl)-4-fluoropiperidin-4-yl)methyl)piperidine-3,4,5-triol] | 10 | – | 6.00 to 7.00 |
| CCCCOc1ccc(CN2C[C@@H](O)[C@H](O)[C@@H](O)C2)cc1 [Example 197, (3S,4r,5R)-1-(4-butoxybenzyl)piperidine-3,4,5-triol] | 5 | – | > 7.00 |
| CCCCCOc1ccc(CN2C[C@@H](O)[C@H](O)[C@@H](O)C2)cc1 [Example 198, (3S,4r,5R)-1-(4-(pentyloxy)benzyl)piperidine-3,4,5-triol] | 12 | – | > 7.00 |
| CCCCOc1cc(F)c(CN2C[C@@H](O)[C@H](O)[C@@H](O)C2)c(F)c1 [Example 199, (3S,4r,5R)-1-(4-butoxy-2,6-difluorobenzyl)piperidine-3,4,5-triol] | 5 | – | 4.60 to 6.00 |
| O[C@H]1[C@H](O)CN(Cc2ccc(OCC3CC3)cc2)C[C@@H]1O [Example 200, (3S,4r,5R)-1-(4-(cyclopropylmethoxy)benzyl)piperidine-3,4,5-triol] | 7 | – | > 7.00 |
| O[C@H]1[C@H](O)CN(Cc2ccc(Oc3ccccc3)cc2)C[C@@H]1O [Example 201, (3S,4r,5R)-1-(4-phenoxybenzyl)piperidine-3,4,5-triol] | 3 | – | > 7.00 |
| O[C@H]1[C@H](O)CN(Cc2ccc(-c3ccccc3)cc2)C[C@@H]1O [Example 202, (3S,4r,5R)-1-([1,1′-biphenyl]-4-ylmethyl)piperidine-3,4,5-triol] | 11 | – | > 7.00 |
| O[C@H]1[C@H](O)CN(Cc2ccc(N3CCCCC3)cc2)C[C@@H]1O [Example 204, (3S,4r,5R)-1-(4-(piperidin-1-yl)benzyl)piperidine-3,4,5-triol] | 4 | – | 6.00 to 7.00 |
| O[C@H]1[C@H](O)CN(Cc2cccs2)C[C@@H]1O [Example 205, (3S,4r,5R)-1-(thiophen-2-ylmethyl)piperidine-3,4,5-triol] | 4 | – | 4.60 to 6.00 |
